Data from patent US11713338B2, “Cyclic peptides multimers targeting α-4-β-7 integrin” (priority 2016, dated 2023).

Biological target: T1, recombinant integrin α4β7 (Homo sapiens, UniProt P13612+P26010, DEL724-798)
T1 construct: purchased R&D Systems 5397-A3-050
T1 sequence (P13612 34-970 limits assumed): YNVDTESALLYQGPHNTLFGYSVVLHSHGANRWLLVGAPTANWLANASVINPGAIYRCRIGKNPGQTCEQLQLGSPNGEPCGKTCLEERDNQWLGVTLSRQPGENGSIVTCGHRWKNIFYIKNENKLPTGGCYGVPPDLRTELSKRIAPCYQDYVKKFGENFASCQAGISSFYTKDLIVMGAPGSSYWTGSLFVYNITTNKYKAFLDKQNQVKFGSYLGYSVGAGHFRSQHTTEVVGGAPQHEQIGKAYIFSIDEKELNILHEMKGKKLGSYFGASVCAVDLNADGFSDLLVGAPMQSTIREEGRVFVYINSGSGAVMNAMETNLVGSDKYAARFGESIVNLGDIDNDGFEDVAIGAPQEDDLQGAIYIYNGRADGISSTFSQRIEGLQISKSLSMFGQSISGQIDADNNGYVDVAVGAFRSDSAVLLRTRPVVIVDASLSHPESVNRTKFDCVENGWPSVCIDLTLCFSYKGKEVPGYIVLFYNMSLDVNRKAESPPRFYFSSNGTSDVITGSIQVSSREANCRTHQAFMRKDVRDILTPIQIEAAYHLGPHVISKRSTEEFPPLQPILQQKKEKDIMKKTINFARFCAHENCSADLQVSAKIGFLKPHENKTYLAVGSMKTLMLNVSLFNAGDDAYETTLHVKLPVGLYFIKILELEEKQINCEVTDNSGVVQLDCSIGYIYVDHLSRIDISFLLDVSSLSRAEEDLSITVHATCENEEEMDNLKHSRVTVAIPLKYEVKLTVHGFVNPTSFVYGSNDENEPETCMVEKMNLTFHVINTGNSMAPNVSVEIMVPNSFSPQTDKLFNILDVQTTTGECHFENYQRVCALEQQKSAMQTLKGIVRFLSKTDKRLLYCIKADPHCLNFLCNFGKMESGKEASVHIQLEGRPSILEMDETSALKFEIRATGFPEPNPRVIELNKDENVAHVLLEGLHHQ
T1 sequence (P26010 20-723 limits assumed): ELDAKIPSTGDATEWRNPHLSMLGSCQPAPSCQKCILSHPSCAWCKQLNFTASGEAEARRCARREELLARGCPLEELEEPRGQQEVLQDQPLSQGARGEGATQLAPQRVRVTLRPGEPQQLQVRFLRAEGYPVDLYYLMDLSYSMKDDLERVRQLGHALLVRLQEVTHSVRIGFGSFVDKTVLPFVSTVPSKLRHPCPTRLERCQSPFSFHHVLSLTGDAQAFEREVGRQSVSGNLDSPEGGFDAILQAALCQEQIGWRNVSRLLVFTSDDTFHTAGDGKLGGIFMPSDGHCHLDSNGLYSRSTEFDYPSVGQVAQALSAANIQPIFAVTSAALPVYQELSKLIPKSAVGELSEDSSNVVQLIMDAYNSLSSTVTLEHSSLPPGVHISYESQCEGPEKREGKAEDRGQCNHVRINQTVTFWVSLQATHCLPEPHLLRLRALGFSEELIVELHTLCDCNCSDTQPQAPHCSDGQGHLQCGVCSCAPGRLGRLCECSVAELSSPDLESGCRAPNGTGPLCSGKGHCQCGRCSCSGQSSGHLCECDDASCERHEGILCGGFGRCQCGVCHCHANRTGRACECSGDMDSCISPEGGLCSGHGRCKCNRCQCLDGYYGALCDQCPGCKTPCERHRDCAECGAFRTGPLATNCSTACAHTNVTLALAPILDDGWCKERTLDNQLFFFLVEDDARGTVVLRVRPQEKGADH
Assay: Integrin α4β7—MAdCAM-1 ELISA competition assay
Type: binding
Settings: for IC50: read-out: ELISA a4b7 Assay IC50; for ELISA Assay Ratio b1/b7: ratio of a4b1 to a4b7 ELISA IC50

Row | SMILES | IC50 [µM] | ELISA Assay Ratio b1/b7
1 | CC(C)C[C@@H]1NC(=O)C[C@H]2CCCN2C(=O)[C@H](Cc2ccc(CN)cc2)NC(=O)[C@@H]2CCCN2[C@H](C(=O)NC(C)(C)C)[C@H](C)NC(=O)[C@H]([C@@H](C)O)NC(=O)[C@H](CC(=O)O)NC1=O [Compound 230] | 0.12 | –
2 | CC(C)C[C@@H]1NC(=O)[C@H](Cc2csc(-c3cccnc3)n2)NC(=O)[C@@H]2CCCN2[C@H](C(=O)NC(C)(C)C)[C@H](C)NC(=O)[C@H]([C@@H](C)O)NC(=O)[C@H](CC(=O)O)NC1=O [Compound 96] | 0.138 | –
3 | CCCC[C@H]1NC(=O)[C@H](Cc2ccc(O)cc2)NC(=O)[C@@H]2CCCN2[C@H](C(=O)NC(C)(C)C)[C@H](C)NC(=O)[C@H]([C@@H](C)O)NC(=O)[C@H](CC(=O)O)NC(=O)[C@H](CC(C)C)NC1=O [Compound 155] | 0.054 | –
4 | CC[C@H](C)[C@@H]1NC(=O)[C@H](CC(=O)O)NC(=O)[C@H](CC(C)C)NC(=O)C[C@H](CCCCN)NC(=O)[C@H](Cc2ccc(CN)cc2)NC(=O)[C@@H]2CCCN2[C@H](C(=O)NC(C)(C)C)[C@H](C)NC1=O [Compound 215] | 0.033 | 12.4
5 | CC[C@H](C)[C@@H]1NC(=O)[C@H](CC(=O)O)NC(=O)[C@H](CC(C)C)NC(=O)[C@H](Cc2ccc(O)cc2)NC(=O)[C@@H]2CCCN2[C@H](C(=O)NC(C)(C)C)[C@H](C)NC1=O [Compound 53] | 0.182 | –
6 | CC(C)C[C@@H]1NC(=O)c2cccc(c2)CN(Cc2ccccc2)C(=O)[C@@H]2CCCN2[C@H](C(=O)NC(C)(C)C)[C@H](C)NC(=O)[C@H]([C@@H](C)O)NC(=O)[C@H](CC(=O)O)NC1=O [Compound 357] | 0.102 | –
7 | COc1ccccc1-c1cccc(C[C@@H]2NC(=O)[C@@H]3CCCN3[C@H](C(=O)NC(C)(C)C)[C@H](C)NC(=O)[C@H]([C@@H](C)O)NC(=O)[C@H](CC(=O)O)NC(=O)[C@H](CC(C)C)NC(=O)C[C@H](CCCCN)NC2=O)c1 [Compound 257] | 0.058 | –
8 | C[C@@H]1NC(=O)[C@H]([C@@H](C)O)NC(=O)[C@H](CC(=O)O)NC(=O)[C@H](CC(C)(C)C)NC(=O)c2ccc(-c3ccnc4ccccc34)c(c2)CNC(=O)[C@@H]2CCCN2[C@@H]1C(=O)NC(C)(C)C [Compound 355] | 0.048 | –
9 | CC(C)C[C@@H]1NC(=O)c2ccc(Br)c(c2)CNC(=O)[C@H](Cc2ccc(O)cc2)NC(=O)[C@@H]2CCCN2[C@H](C(=O)NC(C)(C)C)[C@H](C)NC(=O)[C@H]([C@@H](C)O)NC(=O)[C@H](CC(=O)O)NC1=O [Compound 336] | 0.162 | 5.6
10 | CC(C)C[C@@H]1NC(=O)C[C@H](CCCCN)NC(=O)[C@H](Cc2cccc(-c3ccc(F)c(F)c3)c2)NC(=O)[C@@H]2CCCN2[C@H](C(=O)NC(C)(C)C)[C@H](C)NC(=O)[C@H]([C@@H](C)O)NC(=O)[C@H](CC(=O)O)NC1=O [Compound 267] | 0.044 | –
11 | COc1cccc(Cl)c1-c1ccccc1C[C@@H]1NC(=O)[C@@H]2CCCN2[C@H](C(=O)NC(C)(C)C)[C@H](C)NC(=O)[C@H]([C@@H](C)O)NC(=O)[C@H](CC(=O)O)NC(=O)[C@H](CC(C)C)NC(=O)C[C@H](CCCCN)NC1=O [Compound 279] | 0.1 | –
12 | CC(C)C[C@@H]1NC(=O)[C@@H]2C[C@@H](O)CN2C(=O)[C@@H]2CCCN2[C@H](C(=O)NC(C)(C)C)[C@H](C)NC(=O)[C@H]([C@@H](C)O)NC(=O)[C@H](CC(=O)O)NC1=O [Compound 63] | 0.107 | –
13 | CC(C)C[C@@H]1NC(=O)[C@H](Cc2ccc(O)cc2)NC(=O)[C@@H]2CCCN2C(C(=O)NC(C)(C)C)C(CSc2ccccc2)NC(=O)[C@H](C(C)C)NC(=O)[C@H](CC(=O)O)NC1=O (stereo partly drawn) [Compound 1] | – | 0.988
14 | CC[C@H](C)[C@@H]1NC(=O)[C@H](CC(=O)O)NC(=O)[C@H](CC(C)C)NC(=O)C[C@@H](CCCCN)NC(=O)[C@H](Cc2ccccc2)NC(=O)[C@@H]2CCCN2[C@H](C(=O)NC(C)(C)C)[C@H](C)NC1=O [Compound 220] | 0.096 | 18.2
15 | CC(C)C[C@@H]1NC(=O)[C@H]2CCCCN2C(=O)[C@@H](Cc2cccc(-c3cccc4ncccc34)c2)NC(=O)[C@@H]2CCCN2[C@H](C(=O)NC(C)(C)C)[C@H](C)NC(=O)[C@H]([C@@H](C)O)NC(=O)[C@H](CC(=O)O)NC1=O [Compound 192] | 0.118 | –
16 | CC(C)C[C@@H]1NC(=O)[C@@H](Cc2ccncc2)NC(=O)[C@@H]2CCCN2[C@H](C(=O)NC(C)(C)C)[C@H](C)NC(=O)[C@H]([C@@H](C)O)NC(=O)[C@H](CC(=O)O)NC1=O [Compound 62] | 0.027 | 4.3
17 | CC(C)C[C@@H]1NC(=O)c2ccc(-c3cccc(CN)c3)c(c2)CNC(=O)[C@@H]2CCCN2[C@H](C(=O)NC(C)(C)C)[C@H](C)NC(=O)[C@H]([C@@H](C)O)NC(=O)[C@H](CC(=O)O)NC1=O [Compound 382] | 0.012 | –
18 | Cc1noc(C)c1-c1ccccc1C[C@H]1NC(=O)[C@@H]2CCCN2[C@H](C(=O)NC(C)(C)C)[C@H](C)NC(=O)[C@H]([C@@H](C)O)NC(=O)[C@H](CC(=O)O)NC(=O)[C@H](CC(C)C)NC(=O)C[C@H](CCCCN)NC1=O [Compound 276] | 0.134 | 106.2
19 | CC(C)C[C@@H]1NC(=O)C[C@H](CCCCN)NC(=O)[C@H](Cc2ccc(-c3ccccc3)cc2)NC(=O)[C@@H]2CCCN2[C@H](C(=O)NC(C)(C)C)[C@H](C)NC(=O)[C@H]([C@@H](C)O)NC(=O)[C@H](CC(=O)O)NC1=O [Compound 204] | 0.063 | –
20 | CC(C)C[C@@H]1NC(=O)[C@@H]2c3ccccc3CN2C(=O)[C@@H]2CCCN2[C@H](C(=O)NC(C)(C)C)[C@H](C)NC(=O)[C@H]([C@@H](C)O)NC(=O)[C@H](CC(=O)O)NC1=O [Compound 99] | 0.057 | –
21 | CC(C)C[C@@H]1NC(=O)C[C@H](CCCCN)NC(=O)[C@H](Cc2ccc(CN)cc2)NC(=O)[C@@H]2CCCN2[C@H](C(=O)NC(C)(C)C)[C@H](C)NC(=O)[C@H](C(C)C)NC(=O)[C@H](CC(=O)O)NC1=O [Compound 254] | 0.055 | 33.0
22 | CC(C)C[C@@H]1NC(=O)[C@H](Cc2ccncc2)NC(=O)[C@@H]2CCCN2[C@H](C(=O)NC(C)(C)C)[C@H](C)NC(=O)[C@H]([C@@H](C)O)NC(=O)[C@H](CC(=O)O)NC1=O [Compound 54] | 0.19 | –
23 | CC(C)C[C@@H]1NC(=O)CN(C)C(=O)[C@H](Cc2cscn2)NC(=O)[C@@H]2CCCN2[C@H](C(=O)NC(C)(C)C)[C@H](C)NC(=O)[C@H]([C@@H](C)O)NC(=O)[C@H](CC(=O)O)NC1=O [Compound 164] | 0.127 | –
24 | CC(C)C[C@@H]1NC(=O)C[C@H](CCCCN)NC(=O)[C@H](Cc2ccc(O)cc2)NC(=O)[C@@H]2CCCN2[C@H](C(=O)NC(C)(C)C)[C@H](C)NC(=O)[C@H]([C@@H](C)OCc2ccccc2)NC(=O)[C@H](CC(=O)O)NC1=O [Compound 200] | 0.134 | 2.6
25 | CC(C)C[C@@H]1NC(=O)CN(C)C(=O)[C@H](Cc2csc(-c3cccnc3)n2)NC(=O)[C@@H]2CCCN2[C@H](C(=O)NC(C)(C)C)[C@H](C)NC(=O)[C@H]([C@@H](C)O)NC(=O)[C@H](CC(=O)O)NC1=O [Compound 181] | – | 12.6
26 | CC(C)C[C@@H]1NC(=O)C[C@H](CCCCN)NC(=O)[C@H](Cc2ccccc2-c2cc(C(F)(F)F)ccc2C(F)(F)F)NC(=O)[C@@H]2CCCN2[C@H](C(=O)NC(C)(C)C)[C@H](C)NC(=O)[C@H]([C@@H](C)O)NC(=O)[C@H](CC(=O)O)NC1=O [Compound 287] | 0.084 | –
